One test relates to HBL-100. Description: Antiproliferative activity against human HBL-100 cells assessed as inhibition of culture growth incubated for 48 hrs by SRB assay. It is filed as functional. In general terms: In SRB staining, fixed cells bind dye roughly in proportion to their protein.
The test system of a further test is A549. Description: Antiproliferative activity against human A549 cells assessed as inhibition of culture growth incubated for 48 hrs by SRB assay. Type of test: functional.
A further test deals with SW1573. Description: Antiproliferative activity against human SW1573 cells assessed as inhibition of culture growth incubated for 48 hrs by SRB assay. It is filed as functional.
Another test relates to T47D. Description: Antiproliferative activity against human T47D cells assessed as inhibition of culture growth incubated for 48 hrs by SRB assay. Type of test: functional.
In a further test the test system is HeLa. Description: Antiproliferative activity against human HeLa cells assessed as inhibition of culture growth incubated for 48 hrs by SRB assay. It is filed as functional.
Test [1] concerns NCI-H1299. Nature of the test: Antiproliferative activity against human H1299 cells assessed as inhibition of culture growth incubated for 48 hrs by SRB assay. Type of test: functional.
Test [2] concerns NCI-H1299. Nature of the test: Anti-invasive activity in human H1299 cells assessed as reduction in cell invasion at 50 uM incubated for 24 hrs by transwell migration assay. It is filed as functional, cell-based.
Test [3] concerns NCI-H1299. Description: Antimigratory activity against human H1299 cells assessed as reduction in cell migration at 50 uM incubated for 24 hrs by wound healing assay. It is filed as functional, cell-based.
The next test concerns Plasmodium falciparum. Description: Antimalarial activity against Plasmodium falciparum assessed as inhibition of parasite growth measured after 72 hrs by NLuc method. It is filed as functional, organism-based.

Molecules are shown by their SMILES. Activity calls are given as the source filed them. No cut-off for these calls is given here.

What is called GI50 is the concentration giving 50% growth inhibition. With `CC(C)=CCC/C(C)=C/CC/C(C)=C/CC/C(C)=C/CSc1ccccc1C(=O)O`, the 50% growth inhibitory concentration (GI50) in the test with HBL-100 was 23 µM; in the test with A549 it was 38 µM; in the test with SW1573 it was 37 µM; in the test with T47D it was 41 µM; in the test with HeLa, 29 µM.
Regarding `CC[C@@]1(O)C(=O)OCc2c1cc1n(c2=O)Cc2cc3ccccc3nc2-1` [CAMPTOTHECIN], the GI50 in the test on HBL-100 turned out to be 0.2 µM; with SW1573 it was 0.3 µM; with T47D, 2 µM; in the test on HeLa, 0.6 µM.
Regarding `CC(C)=CCC/C(C)=C/CC/C(C)=C/CSc1ccccc1C(=O)O` [SALIRASIB], the GI50 with HBL-100 was 22 µM; in the test on A549, 34 µM; with NCI-H1299 [1] it was 85 µM; with SW1573, 41 µM; in the test on T47D, 42 µM; in the test on HeLa, 34 µM.
For the molecule `CC(C)=CCC/C(C)=C/CSc1ccccc1C(=O)O`, the result in the test on NCI-H1299 [2] and in the test with NCI-H1299 [3] was Active.
For orientation: IC50 means the midpoint of a concentration-inhibition curve. Consider `C/C(=C\Cn1cc(CSc2ccccc2C(=O)O)nn1)CCC[C@H](C)CCC[C@H](C)CCCC(C)C`, for which the GI50 came out at 10 µM with HBL-100; 5.4 µM in the test on A549; 59 µM in the test with NCI-H1299 [1]; 5.8 µM in the test on SW1573; 9.6 µM in the test with T47D; 4.3 µM in the test on HeLa. Besides, the IC50 in the test on Plasmodium falciparum turned out to be 9.75 µM.
In the case of `COc1cc([C@@H]2c3cc4c(cc3[C@@H](O[C@@H]3O[C@@H]5CO[C@@H](C)O[C@H]5[C@H](O)[C@H]3O)[C@H]3COC(=O)[C@H]23)OCO4)cc(OC)c1O` [ETOPOSIDE], the GI50 worked out at 1.4 µM in the test with HBL-100; 1.5 µM in the test on A549; 14 µM in the test on SW1573; 22 µM in the test with T47D; 3.3 µM in the test on HeLa.
In the case of `CCCCCCCCCCSc1ccccc1C(=O)O`, in the test with NCI-H1299 [2], the outcome was inactive. For the same molecule, the result in the test on NCI-H1299 [3] was Active.
For `CC(C)=CCC/C(C)=C/CC/C(C)=C/Cn1cc(CSc2ccccc2C(=O)O)nn1`, the GI50 in the test with HBL-100 was found to be 33 µM; in the test on A549, 40 µM; in the test on NCI-H1299 [1] it was 102 µM; with SW1573, 40 µM; in the test on T47D it was 52 µM; in the test with HeLa, 33 µM.
In the case of `CC(C)=CCC/C(C)=C/Cn1cc(CSc2ccccc2C(=O)O)nn1`, the outcome in the test on NCI-H1299 [3] was inactive.
As to `C/C(=C\CSc1ccccc1C(=O)O)CCCC(C)CCCC(C)CCCC(C)C` (centres undefined), the 50% growth inhibitory concentration (GI50) with HBL-100 was 14 µM; with A549 it was 14 µM; in the test with NCI-H1299 [1], over 100 µM; in the test on SW1573, 15 µM; in the test on T47D it was 18 µM; with HeLa it was 12 µM.
`CCCCCCCCn1cc(CSc2ccccc2C(=O)O)nn1`: the 50% growth inhibitory concentration (GI50) with HBL-100 is 40 µM; with A549 it was 61 µM; with NCI-H1299 [1], over 100 µM; with SW1573, 47 µM; in the test on T47D it was 93 µM; in the test with HeLa it was 39 µM. Further, in the test with NCI-H1299 [3], the result was inactive.
Turning to `CCCCCCCCCCCCCCCCn1cc(CSc2ccccc2C(=O)O)nn1`, the GI50 in the test with HBL-100 is 14 µM; in the test with A549 it was 9.2 µM; in the test on NCI-H1299 [1] it was 27 µM; with SW1573 it was 9.3 µM; in the test with T47D, 20 µM; in the test on HeLa, 6.9 µM.
Take `CCCCCCCCSc1ccccc1C(=O)O`: the outcome in the test on NCI-H1299 [2] and with NCI-H1299 [3] was Active.

These data come from ChEMBL document CHEMBL5325490, “Lipophilic modification of salirasib modulates the antiproliferative and antimigratory activity” (Bioorg Med Chem, 2023).
